Laboratory results: ChEMBL document CHEMBL3870316, “Design, synthesis and structure-activity relationships of novel 4-phenoxyquinoline derivatives containing 1,2,4-triazolone moiety as c-Met kinase inhibitors” (Eur J Med Chem, 2016)
pIC50: −log10 of the molar value.

Assays:
[1] = Cytotoxicity against c-Met over-expressed human A549 cells assessed as cell growth inhibition after 72 hrs by MTT assay; conditions: A549, 72 h
[2] = Cytotoxicity against c-Met over-expressed human H460 cells assessed as cell growth inhibition after 72 hrs by MTT assay; conditions: NCI-H460, 72 h
[3] = Cytotoxicity against c-Met over-expressed human MKN45 cells assessed as cell growth inhibition after 72 hrs by MTT assay; conditions: MKN-45, 72 h
[4] = Cytotoxicity against c-Met over-expressed human HT-29 cells assessed as cell growth inhibition after 72 hrs by MTT assay; conditions: HT-29, 72 h

Row | SMILES | pIC50 [1] | pIC50 [2] | pIC50 [3] | pIC50 [4]
1 | COc1cc2c(Oc3ccc(NC(=O)c4nn(-c5ccc(Cl)cc5Cl)c(=O)n4C)cc3F)ccnc2cc1OCCCN1CCN(C)CC1 | 6.60 | 6.62 | 6.74 | 6.52
2 | COc1cc2c(Oc3ccc(NC(=O)c4nn(-c5cccc(F)c5)c(=O)n4C)cc3F)ccnc2cc1OCCCN1CCN(C)CC1 | 6.55 | 6.51 | 6.39 | 6.54
3 | COc1cc2c(Oc3ccc(NC(=O)c4nn(-c5ccccc5Cl)c(=O)n4C)cc3F)ccnc2cc1OCCCN1CCN(C)CC1 | 6.80 | 6.47 | 7.06 | 6.77
4 | COc1cc2c(Oc3ccc(NC(=O)c4nn(-c5ccccc5)c(=O)n4C)cc3F)ccnc2cc1OCCCN1CCCCC1 | 6.35 | 6.11 | 6.34 | 6.06
5 | COc1cc2c(Oc3ccc(NC(=O)c4nn(-c5c(C)cccc5C)c(=O)n4C)cc3F)ccnc2cc1OCCCN1CCCCC1 | 5.70 | 5.52 | 5.73 | 5.77
6 | COc1cc2c(Oc3ccc(NC(=O)c4nn(-c5ccc(OC(F)F)cc5)c(=O)n4C)cc3F)ccnc2cc1OCCCN1CCCCC1 | 6.66 | 6.51 | 6.89 | 6.55
7 | COc1cc2c(Oc3ccc(NC(=O)c4nn(-c5ccccc5Cl)c(=O)n4C4CC4)cc3F)ccnc2cc1OCCCN1CCN(C)CC1 | 6.89 | 6.64 | 7.20 | 6.72
8 | COc1cc2c(Oc3ccc(NC(=O)c4nn(-c5ccccc5)c(=O)n4C)cc3F)ccnc2cc1OCCCN1CCN(C)CC1 | 6.34 | 6.21 | 6.25 | 6.19
9 | COc1cc2c(Oc3ccc(NC(=O)c4nn(-c5ccccc5OC(F)(F)F)c(=O)n4C4CC4)cc3F)ccnc2cc1OCCCN1CCN(C)CC1 | 6.96 | 6.74 | 7.21 | 7.05
10 | COc1cc2c(Oc3ccc(NC(=O)c4nn(-c5ccccc5Cl)c(=O)n4C)cc3F)ccnc2cc1OCCCN1CCC(C)CC1 | 6.62 | 6.70 | 6.46 | 6.82
11 | COc1cc2c(Oc3ccc(NC(=O)c4nn(-c5ccccc5)c(=O)n4C)cc3F)ccnc2cc1OCCCN1CCCC1 | 6.00 | 5.89 | 5.94 | 5.84
12 | CCn1c(C(=O)Nc2ccc(Oc3ccnc4cc(OCCCN5CCCCC5)c(OC)cc34)c(F)c2)nn(-c2ccccc2OC(F)(F)F)c1=O | 6.72 | 6.60 | 6.92 | 6.72
13 | COc1cc2c(Oc3ccc(NC(=O)c4nn(-c5ccccc5Cl)c(=O)n4C4CC4)cc3F)ccnc2cc1OCCCN1CCC(C)CC1 | 6.70 | 6.80 | 6.96 | 6.85
14 | COc1cc2c(Oc3ccc(NC(=O)c4nn(-c5ccccc5F)c(=O)n4C)cc3F)ccnc2cc1OCCCN1CCC(C)CC1 | 6.92 | 6.60 | 6.72 | 6.96
15 | COc1cc2c(Oc3ccc(NC(=O)c4nn(-c5ccccc5OC(F)(F)F)c(=O)n4C)cc3F)ccnc2cc1OCCCN1CCC(C)CC1 | 6.74 | 6.46 | 7.02 | 6.72
16 | COc1cc2c(Oc3ccc(NC(=O)c4nn(-c5ccc(Cl)cc5Cl)c(=O)n4C)cc3F)ccnc2cc1OCCCN1CCCCC1 | 6.49 | 6.42 | 6.54 | 6.47
17 | COc1cc2c(Oc3ccc(NC(=O)c4nn(-c5ccc(F)cc5)c(=O)n4C)cc3F)ccnc2cc1OCCCN1CCCCC1 | 6.46 | 6.24 | 6.40 | 6.40

Row | SMILES | pIC50 [1] | pIC50 [2] | pIC50 [3] | pIC50 [4]
18 | COc1ccc(-n2nc(C(=O)Nc3ccc(Oc4ccnc5cc(OCCCN6CCN(C)CC6)c(OC)cc45)c(F)c3)n(C)c2=O)cc1 | 6.14 | 5.67 | 5.78 | 5.89
19 | COc1cc2c(Oc3ccc(NC(=O)c4nn(-c5cccc(F)c5)c(=O)n4C)cc3F)ccnc2cc1OCCCN1CCC(C)CC1 | 6.36 | 6.54 | 6.70 | 6.40
20 | COc1cc2c(Oc3ccc(NC(=O)c4nn(-c5ccccc5OC(F)(F)F)c(=O)n4C)cc3F)ccnc2cc1OCCCN1CCN(C)CC1 | 7.05 | 6.70 | 7.70 | 6.74
21 | COc1cc2c(Oc3ccc(NC(=O)c4nn(-c5ccc(F)cc5)c(=O)n4C)cc3F)ccnc2cc1OCCCN1CCN(C)CC1 | 6.62 | 6.43 | 6.46 | 6.60
22 | COc1ccc(-n2nc(C(=O)Nc3ccc(Oc4ccnc5cc(OCCCN6CCCCC6)c(OC)cc45)c(F)c3)n(C)c2=O)cc1 | 6.02 | 5.55 | 6.06 | 5.51
23 | COc1cc2c(Oc3ccc(NC(=O)c4nn(-c5ccc(F)cc5)c(=O)n4C)cc3F)ccnc2cc1OCCCN1CCCC1 | 6.17 | 6.14 | 6.12 | 6.01
24 | COc1cc2c(Oc3ccc(NC(=O)c4nn(-c5ccccc5)c(=O)n4C)cc3F)ccnc2cc1OCCCN1CCC(C)CC1 | 6.42 | 6.08 | 6.33 | 6.17
25 | COc1cc2c(Oc3ccc(NC(=O)c4nn(-c5ccc(Cl)cc5Cl)c(=O)n4C)cc3F)ccnc2cc1OCCCN1CCC(C)CC1 | 6.46 | 6.35 | 6.40 | 6.74
26 | COc1cc2c(Oc3ccc(NC(=O)c4nn(-c5ccccc5F)c(=O)n4C)cc3F)ccnc2cc1OCCCN1CCCCC1 | 6.66 | 6.59 | 7.15 | 6.80
27 | COc1cc2c(Oc3ccc(NC(=O)c4nn(-c5cccc(F)c5)c(=O)n4C)cc3F)ccnc2cc1OCCCN1CCCCC1 | 6.42 | 6.46 | 6.48 | 6.37
28 | COc1cc2c(Oc3ccc(NC(=O)c4nn(-c5c(C)cccc5C)c(=O)n4C)cc3F)ccnc2cc1OCCCN1CCN(C)CC1 | 6.01 | 5.62 | 5.78 | 5.90
29 | COc1cc2c(Oc3ccc(NC(=O)c4nn(-c5ccc(F)cc5)c(=O)n4C)cc3F)ccnc2cc1OCCCN1CCC(C)CC1 | 6.39 | 6.62 | 6.51 | 6.48
30 | CCn1c(C(=O)Nc2ccc(Oc3ccnc4cc(OCCCN5CCC(C)CC5)c(OC)cc34)c(F)c2)nn(-c2ccccc2OC(F)(F)F)c1=O | 6.66 | 6.70 | 7.06 | 6.80
31 | COc1cc2c(Oc3ccc(NC(=O)c4nn(-c5ccccc5Cl)c(=O)n4C)cc3F)ccnc2cc1OCCCN1CCCCC1 | 6.72 | 6.52 | 6.66 | 6.74
32 | COc1cc2c(Oc3ccc(NC(=O)c4nn(-c5ccccc5OC(F)(F)F)c(=O)n4C)cc3F)ccnc2cc1OCCCN1CCCCC1 | 6.89 | 6.54 | 7.10 | 6.68
33 | COc1cc2c(Oc3ccc(NC(=O)c4nn(-c5ccc(F)cc5)c(=O)n4C)cc3F)ccnc2cc1OCCCN1CCOCC1 | 6.40 | 6.09 | 6.19 | 5.91
34 | COc1cc2c(Oc3ccc(NC(=O)c4nn(-c5ccc(OC(F)F)cc5)c(=O)n4C)cc3F)ccnc2cc1OCCCN1CCN(C)CC1 | 6.54 | 6.54 | 6.85 | 6.66
